# Entries after “also recorded” stand apart in the source; their conditions may differ. Like-named read-outs stand apart in the source and are kept apart here.
# Assays:
# [1] = Compound 1 Injection 20 mg/mL batch analysis and stability (appearance, HPLC assay, related substances, pH, particulate matter); assay type: physicochemical; conditions: 72-hour stability data at 20 mg/mL
# Protocol: The HPLC method used in the stability studies for Compound 1 Injections, 20 mg/mL is a specific and stability-indicating method used for the determination of assay, related substances, content uniformity, identification, and absence of Compound 1 in Compound 1 Injection at 20 mg/mL. The method is a gradient reverse phase HPLC system to measure assay, purity, and related substances. The assay (% w/w) is determined by comparing the peak response of the sample to that of a standard. The same HPLC method used for purity and related substances is used to measure related substances. Related substances to Compound 1 drug substance are reported as area percent. The area of an impurity is divided by the total area of all sample-related peaks. Related substances are reported by retention time relative to the parent peak (RRT).
# Compound 1 Injection, 20 mg/mL, was prepared as a non-buffered solution suitable for Phase 1 clinical studies containing Compound 1, sodium chloride, and pH adjustment using hydrochloric acid and/or sodium hydroxide to pH 7.5. […] Samples have been analyzed for appearance, assay, related substance, and pH. Compound 1 Injection, engineering batch #707 manufactured under GMP was placed on an ICH stability program at 5° C. and 25° C./60% RH. Samples have been analyzed for appearance, assay, related substance, particulate matter, and pH. […]
# [2] = pH stability of Compound 1 in buffer solutions stored at 40° C.; assay type: physicochemical; conditions: buffer solutions pH 7-8, stored at 40° C., up to seven days
# Protocol: The pH stability in buffer solutions were also evaluated for pH levels 7, 8, and 9 when stored at 40° C.
# [3] = test system: Candida (C. albicans, C. glabrata, or C. auris); assay: PK-PD studies in immunocompromised mice infected with Candida (fungal burden, CFUs in the kidney); assay type: in vivo; conditions: dose fractionations
# Protocol: In PK-PD studies, immunocompromised mice were infected with one of three spp. of Candida (C. albicans, C. glabrata, or C. auris) and groups of animals were dosed with Compound 1 at different dose fractionations. […] The stasis endpoint was defined as the quantity of Candida spp. in CFUs just prior to Compound 1 administration compared to CFUs at the endpoint of assessment (i.e., 24 hours for C. albicans; 96 hours for C. glabrata and C. auris).
# In pharmacokinetic/pharmacodynamic (PK-PD) studies, immunocompromised mice were infected with one of three spp. of Candida (C. albicans, C. glabrata, or C. auris) and groups of animals were dosed with Compound 1 at different dose fractionations.
# [4] = Binary excipient compatibility study of Compound 1; assay type: physicochemical; conditions: binary mixtures, after 3 weeks at either storage condition
# Protocol: For each excipient screened, there were […] (5° C., room temperature, 40° C./75% RH, 50° C.) that could be pulled at 3 weeks or 4 weeks as shown in Table 85. For contingency, one vial was stored at each condition per excipient. At each time point, an appropriate active sample control vial from each condition was reconstituted and analyzed in addition to the compatibility samples.
# [5] = Compound 1 pH solubility at room temperature; assay type: physicochemical
# [6] = Additional Phase 1 study of Compound 1: IV loading, IV maintenance, then oral through Day 42, safety; assay type: in vivo, human; conditions: 1000 mg IV 3-hour BID Day 1, 600 mg IV 3-hour QD Days 2-7, 800 mg orally QD Days 8-42
# [7] = Study #2 Phase 1: pharmacokinetics after single IV and single/multiple oral doses of Compound 1, absolute oral bioavailability; conditions: Cohort 1A, Period A, 200 mg IV;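 note: phase 1 study design: one IV dose, then escalating single oral doses, fed versus fasted single oral dosing, and once-daily oral dosing over 14 days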
# Text: In the single ascending dose (SAD) phase, subjects in Cohort 1a received a single IV dose in Period A and then rising single oral doses in Periods B to D. Subjects in Cohort 1b received a single oral dose under fed and fasted conditions in Periods E and F. Subjects in Cohorts 2 and 3 received once-daily oral doses for 14 days, as did subjects in Cohort 4 as part of an in vivo screen for drug-drug interaction (DDI) potential.
# For SAD Cohorts 1a and 1b, urine samples for the determination of Compound 1A were collected through 48 hrs after dosing.
# Forty-six (46) subjects were enrolled into the study, 8 in Cohort 1a, 10 in Cohort 1b, and 8 each in Cohorts 2 and 3.
# [8] = Study #1 Phase 1: safety and tolerability (TEAEs) of IV Compound 1
# Protocol: This was a Phase 1, first-in-human, randomized, double-blind, placebo-controlled single ascending dose (SAD) and multiple ascending dose (MAD) escalation study of 120 healthy male and female subjects.
# (§1) In the single ascending dose (SAD) phase, Cohorts 1 to 6 and 11A to 11D received single doses. For Cohorts 11A to 11D, the infusion time varied from 0.5 to 3 hours to evaluate the relationship between C., and tolerability. In the multiple ascending dose (MAD) phase, Cohorts 7 to 10 received multiple doses over 14 days, and Cohort 12 examined the feasibility of a loading dose regimen.
# [9] = in vivo
# Text: This was a Phase 1, first-in-human, randomized, double-blind, placebo-controlled single ascending dose (SAD) and multiple ascending dose (MAD) escalation study of 120 healthy male and female subjects. The objectives of the study were to evaluate the safety, tolerability, and pharmacokinetics of single and multiple doses of Compound 1 administered by intravenous (IV) infusion.
# as §1
# Blood samples for the determination of Compound 1 and Compound 1A plasma concentrations were collected before and at appropriate times during all single- and multiple-dose administrations of Compound 1. For SAD Cohorts 1 to 6, urine samples for the determination of Compound 1A were collected through 48 hrs after dosing.
# Eighty (80) subjects were enrolled into SAD Cohorts 1 to 6 and 11A to 11D. Within each cohort, six subjects were randomized to Compound 1 and two subjects to placebo. All 60 subjects randomized to Compound 1 completed dosing. Fifty-nine (59) subjects completed the study.
# Forty (40) subjects were enrolled into MAD Cohorts 7 to 10 and Loading Dose Cohort 12. Within each cohort, six subjects were randomized to Compound 1 and two subjects to placebo.
# The PK analysis population therefore consisted of 60 subjects in the SAD phase and 28 subjects in the MAD phase.
# [10] = 100 mg sd oral treatment period
# [11] = 300 mg sd oral treatment period
# [12] = 500 mg sd oral treatment period
# [13] = 1000 mg/0.5 hr IV single dose group
# [14] = 1000 mg/1 hr IV single dose group
# [15] = 1000 mg/2 hr IV single dose group
# [16] = 1000 mg/3 hr IV single dose group
# [17] = Cohort 12 loading dose regimen (1000 mg IV 2-hour twice on Day 1 + 600 mg IV 1-hr QD Days 2-7)
structure (smiles),measurement,setting,value
Nc1c(-c2cc(Cc3ccc(COc4ccccn4)cc3)no2)ccc[n+]1COP(=O)([O-])O [Compound 1],number of TEAEs,[10],2 TEAEs
same,subjects reporting TEAEs,[10],33%
same,number of TEAEs,200 mg sd IV treatment period,3 TEAEs
same,subjects reporting TEAEs,200 mg sd IV treatment period,50%
same,number of TEAEs,[11],6 TEAEs
same,subjects reporting TEAEs,[11],50%
same,number of TEAEs,500 mg md oral group,24 TEAEs
same,subjects reporting TEAEs,500 mg md oral group,83%
same,number of TEAEs,[12],1 TEAE
same,subjects reporting TEAEs,[12],17%
same,safety and tolerability,1000 mg PO QD on Days 1 through 14,safe and well tolerated
same,number of TEAEs,1000 mg md oral group,119 TEAEs
same,subjects reporting TEAEs,1000 mg md oral group,100%
same,deaths or SAEs,Study #2,no deaths or SAEs reported
same,dose-limiting toxicities (DLTs),Study #2,No DLTs were observed
same,maximum tolerated dose (MTD),Study #2,not determined/reached
same,safety and tolerability,all doses in Study #2,safe and well tolerated
same,tolerability,multiple oral doses of 500 mg and 1000 mg once daily for 14 consecutive days,well tolerated by the majority of subjects
same,tolerability,single IV doses of 200 mg and single oral doses 100 mg to 500 mg,well tolerated
same,effect of dosing under fed conditions on tolerability,"single-dose crossover food effect cohort, TEAEs related to Gastrointestinal and Nervous System Disorders",improve tolerability
same,degradation,[1],< 0.10%
same,change in potency,[2],< 3%
same,"PK-PD variable that best correlated with antifungal efficacy (fungal burden, CFUs in the kidney)",[3],AUC/MIC ratio
same,compatibility with excipients (total purity profile),[4],compatible with the tested excipients
same,solubility,"[5]; 50 mM phosphate buffer, pH 7.5, aqueous buffer, Study B, pH 7.5 (50 mM phosphate buffer)",141000 µg/mL
same,solubility,"[5]; pH 1, simulated gastric fluid, Study A, pH 1",3830 µg/mL
same,solubility,"[5]; pH 3, aqueous buffer, Study A, pH 3",111 µg/mL
same,solubility,"[5]; pH 4, aqueous buffer, Study A, pH 4",63 µg/mL
same,solubility,"[5]; pH 5, aqueous buffer, Study A, pH 5",125 µg/mL
same,solubility,"[5]; pH 6, aqueous buffer, Study A, pH 6",758 µg/mL
same,solubility,"[5]; pH 6.5, aqueous buffer, Study B, pH 6.5",4300 µg/mL
same,solubility,"[5]; pH 7, aqueous buffer, Study A, pH 7, saturation not achieved",> 17600 µg/mL
same,solubility,"[5]; pH 7, aqueous buffer, Study B, pH 7.0",53700 µg/mL
same,solubility,"[5]; pH 7.5, aqueous buffer, Study A, pH 7.5, saturation not achieved",> 28500 µg/mL
same,solubility,"[5]; pH 8.5, aqueous buffer, Study A, pH 8.5, saturation not achieved",> 80000 µg/mL
same,solubility,"[5]; phosphate buffer, pH 7, aqueous buffer, Study B, pH 7.0 (with phosphate buffer)",20900 µg/mL
same,safety and tolerability,[6],safe and well tolerated
same,time after IV infusion through which prodrug plasma concentrations were ≥LOQ,[7],≤ 4 h
same,number of TEAEs,[8]; [13],21 TEAEs
same,subjects reporting TEAEs,[8]; [13],100%
same,number of TEAEs,[8]; [14],25 TEAEs
same,subjects reporting TEAEs,[8]; [14],100%
same,number of TEAEs,[8]; [15],22 TEAEs
same,subjects reporting TEAEs,[8]; [15],100%
same,number of TEAEs,[8]; [16],13 TEAEs
same,subjects reporting TEAEs,[8]; [16],83%
same,number of TEAEs,[8]; [17],38 TEAEs
same,subjects reporting TEAEs,[8]; [17],100%
same,maximum tolerated dose (MTD),[8]; Study #1 and Study #2,not determined/not reached
same,severe TEAEs or SAEs,[8]; Study #1 and Study #2,no severe or very severe TEAEs or SAEs reported
same,dose-limiting toxicities,[8]; Study #1 and Study #2 (two Phase 1 studies),no dose-limiting toxicities observed; also recorded: No DLTs were observed
same,tolerability,"[8]; all single and multiple IV and oral doses, Study #1 and Study #2",well tolerated
same,safety and tolerability,"[8]; faster infusions (single dose: 2, 1 and 0.5 hrs; multiple dose: 1 hr)",safe and well tolerated
same,safety and tolerability,"[8]; loading dose 1000 mg IV twice on Day 1 (2-hr infusion), maintenance 600 mg QD",safe and well tolerated
same,tolerability,[8]; multiple IV doses up to 600 mg once daily for 14 consecutive days,well tolerated by the majority of subjects
same,tolerability,"[8]; single IV doses up to 350 mg over 3 hours and 1000 mg over 0.5-, 1-, 2-, 3-hour infusions",well tolerated
same,exposures to the prodrug relative to those of the active Compound 1A,"[9]; both, human, iv",< 5%
same,time after start of infusion by which prodrug concentrations are <LOQ,"[9]; both, human, iv",at most 8 hrs
same,accumulation of prodrug following multiple dosing,[9],essentially no accumulation

# Reference: patent US20210290644A1, “COMPOUNDS AND METHODS FOR TREATING FUNGAL INFECTIONS” (Amplyx Pharmaceuticals, Inc., priority 2018, published 2021)
